Data as given in publication PMC10823468, “Design, Synthesis, and Evaluation of New 1H-Benzo[d]imidazole Based PqsR Inhibitors as Adjuvant Therapy for Pseudomonas aeruginosa Infections” (Journal of Medicinal Chemistry, 2024).

Columns and labels:
[1] = parameters: method as in PMID 33073099; conditions: rat microsomes; cited from earlier work
[2] = tested on: A549 human lung epithelial carcinoma cell line; assay: A549 cytotoxicity assay (resazurin / alamar blue); type: cell-based; conditions: at concentrations up to 100 μM (1, 50, 100 μM), 24 h
Description: Establishing the safety profile of new chemical entities is paramount for further drug development. […] The assay employed resazurin reduction, a sensitive fluorometric assay widely used as a standard methodology in drug discovery research.[35] This assay relies on the ability of living cells to reduce resazurin to the fluorescent compound, resorufin, which indicates the rate of the metabolic activity as a means to quantify cell viability.
Cell viability was assessed according to Nimesh et al.[51] on A549 adenocarcinomic human alveolar basal epithelial cell line. The viability of the A549 cell line was assessed after overnight incubation with three concentrations (1, 50, and 100 μM) of the corresponding compound using alamar blue (resazurin) dye. Cells were maintained in the Dulbecco’s Modified Essential Medium (DMEM) supplemented with 10% fetal bovine serum (FBS) and 1% penicillin–streptomycin–neomycin (PSN). After that, 100 μL of suspended cells with a final concentration (1 × 10^4 cells/wall) were seeded in 96-well plates with 100 μL of (1, 50, 100 μM) concentrations of the tested compound was dispensed in sextuplicate. […] The plates were further incubated for 4–6 h and the intensity of the fluorescence was measured using an excitation light of 510 nm and measuring the fluorescence output at 590 nm. The cell viability in each well was normalized to the DMSO reading.

[3] = tested on: PqsR (PqsR-controlled pqsA promoter, PAO1-L mCTX::PpqsA-lux); assay: Bioluminescent reporter assay, PAO1-L mCTX::PpqsA-lux; type: cell-based, Pseudomonas aeruginosa; conditions: Pseudomonas aeruginosa, PAO1, read-out: IC50 (μM) PAO1-L mCTX::PpqsA-lux
Description: (§1) An extensive SAR was performed on 6a to investigate the role of substitutions around various positions of the benzimidazole ring (groups R1–R3) as well as the aromatic tail (groups R4–R5) to fine-tune the potency of this series (6a–u) (Table 2). The activity of these analogues to inhibit the pqs QS system was evaluated in the PAO1-L and PA14 strains (that belong to the two major P. aeruginosa genomic lineages), both harboring a chromosomally integrated mCTX::PpqsA-lux transcriptional fusion to report for the activity of pqs system. Successful pharmacological blocking of AQ signal reception at the level of PqsR leads to a reduced transcription of the pqsA-lux genes and ultimately reduction in the luminescence readout.
(§2) Strains PA14 mCTX::PpqsA-lux and PAO1-L mCTX::PpqsA-lux were used to detect PqsR-controlled activation of the pqsA promoter, as previously described,[45] and the assay was performed according to a published method.[46] For initial screening, the compounds were tested at a concentration of 10 μM, which was prepared from a 10 mM stock, in DMSO.

[4] = tested on: PqsR (PqsR-controlled pqsA promoter, PA14 mCTX::PpqsA-lux); assay: Bioluminescent reporter assay, PA14 mCTX::PpqsA-lux; type: cell-based; conditions: Pseudomonas aeruginosa, PA14, read-out: IC50 (μM) PA14 mCTX::PpqsA-lux
Description: as §1, §2

[5] = parameters: method as in PMID 33073099; conditions: rats; intratracheal; coarse suspension; cited from earlier work
[6] = tested on: GFP-labeled P. aeruginosa PAO1-L biofilms; assay: Biofilm viability assay, method 2 (tobramycin, GFP-labeled biofilm, PI); type: cell-based, Pseudomonas aeruginosa
Description: Biofilms of PAO1-L were also tested for the impact of 6f on the potentiation of tobramycin activity (method 2).
Figure 7 Effect of 6f and tobramycin on GFP-labeled P. aeruginosa PAO1-L biofilms. (A) Representative CLSM images: (a) Untreated biofilm; (b) biofilm grown with 6f at 1 μM for 16 h; (c) biofilm treated with 100 μg/mL tobramycin for 2 or 6 h after 16 h of growth; (d) biofilm grown with 1 μM 6f and treated with (6f 1 μM), tobramycin (100 μg/mL) for 2 or 6 h after 16 h of growth. Dead cells and extracellular DNA were stained red with propidium iodide (PI). Three-dimensional (3D) sections and cross sections are shown. Scale bar represents 100 μm. (B) Quantitative analysis of biofilm biomass at different conditions of treatment compared with a solvent vehicle control.
Biofilms were cultivated on borosilicate glass coverslips in Petri dishes. P. aeruginosa strains, […], was transformed with plasmid pMMG, which constitutively expresses GFP from the Ptac promoter.[50] The tagged strain was grown at 37 °C, for 16 h, in 2 mL of RPMI-1640 (Lonza, Slough, UK), supplemented with 20 mM D-glucose (Sigma–Aldrich, Dorset, UK) and 2 μM FeCl3 (Sigma–Aldrich, Dorset, UK). Cultures were diluted 1:100 in fresh medium and allowed to grow for a further 4 h, or until an OD600 of 0.5 was reached. The mid logarithmic cultures were diluted to an OD600 of 0.01 in 25 mL of RPMI, supplemented with glucose and FeCl3, and inoculated into Petri dishes containing UV sterilized borosilicate glass coverslips (22 mm × 22 mm, thickness no1) (VWR, Lutterworth, UK). Bacterial cells were seeded at 37 ◦C under static conditions for 1.5 h, and compound 6f was supplemented to the 6f treated samples (6f, 6f + Tob samples) at a concentration of 1 μM before dishes were transferred to a shaker at 60 rpm and 37 ◦C for 16 h to form mature biofilms. Tobramycin and propidium iodide were added to the 16 h old cultures at concentrations of 100 μg/mL and 2 μM, respectively, followed by further incubation for 2 or 6 h. […]

SMILES: CC(C)n1c(NCC(O)COc2ccc(CC#N)cc2)nc2ccc(Cl)cc21 (stereo not drawn) [Compound 6f, 2-(4-(3-((6-Chloro-1-isopropyl-1H-benzo[d]imidazol-2-yl)amino)-2-hydroxypropoxy)phenyl) Acetonitrile]
- half-life [1]: relatively short
- cytotoxicity for A549 cells [2]: not cytotoxic
- IC50 [3]: 0.07 ± 0.02 µM
- IC50 [4]: 0.09 ± 0.01 µM
- clearance from lung to plasma [5]: rapid clearance
- systemic clearance [5]: fast systemic clearance
- biofilm killing, combination with tobramycin ([6]; 6f 1 μM + tobramycin 100 μg/mL, 2 and 6 h of incubation): enhanced the killing
- live cells in biofilm, combination with tobramycin ([6]; 6f 1 μM + tobramycin 100 μg/mL, 6 h): no live cells present
- viability of preformed biofilms, 6f on its own ([6]; PAO1-L biofilm, 6f 1 μM): did not impact on the viability
